# Experimental data: paper PMC11234460, “In Silico Discovery of Stapled Peptide Inhibitor Targeting the Nur77‐PPARγ Interaction and Its Anti‐Breast‐Cancer Efficacy” (Advanced Science, 2024)
# Where a SMILES comes first, the peptide text is derived from it. Bridges are numbered along the chain shown (N, C = ends). [ ]: non-standard residue; d: D form. S5 = C=CCCC[C@](C)(N)C(=O)O
# Experiments:
# MCF7 cells [1] = test: qPCR of CD36 and FABP4; assay type: cell-based, human; conditions: n = 3
# MCF7 cells [2] = test: Western blot of Nur77, CD36 and FABP4; assay type: cell-based, human
# Protocol: MCF7 and MDA‐MB‐231 cells were treated with various concentrations of peptide. The cells were then collected and lysed in NP40 lysis buffer. Total protein was quantified using a BCA assay kit (Beyotime, P0010S). The proteins were separated by SDS‐PAGE and transferred onto a PVDF membrane. The PVDF membrane was blocked in TBST containing 5% non‐fat milk, and then incubated with primary antibodies overnight at 4 °C. Subsequently, membranes were incubated with horseradish peroxidase‐conjugated antirabbit or antimouse IgG secondary antibody for 1 h at room temperature. The membranes were analyzed by a Tanon‐5200 Multi Gel Imaging Analysis System (Tanon) and quantified by ImageJ software.
# [3] = CD spectroscopy, α-helicity; assay type: physicochemical; conditions: 5 × 10^−5 M peptide in H2O, 25 °C, 1 mm cuvette, 185-260 nm
# Protocol: The detection wavelengths of the peptides were 214 and 254 nm. Solvent A: H2O (containing 0.1% TFA) and solvent B: acetonitrile (containing 0.1% TFA) were used as solvents in linear gradient mixtures. Peptide purification was performed by semi‐preparative HPLC using an XBridge Prep C18 column (19 × 250 mm, 10 µm particle size, flow rate of 20 mL min^−1). Solvents A and B were the same as those in the peptide analysis procedure. The peptides were dissolved in H2O to a final concentration of 5 × 10^−5 M. The purified peptide was detected using a mass spectrometer (6410 Triple Quad LC/MS, Agilent, USA) (Table S2, Supporting Information). The solvent was 80% methanol and 20% H2O (containing 0.1% formic acid). The CD spectra were obtained with a 1 mm quartz cuvette on a BRIGHT TIME Chirasca (Applied Photophysics, Britain) spectropolarimeter with a scan wavelength between 185–260 nm at 25 °C. The helicity of each peptide was calculated by the literature equation.^[ [24] ^]
# [4] = system: MDA-MB-231-GFP tumor tissue; test: Transcriptome analysis of xenograft tumor tissue; assay type: in vivo, mouse; conditions: 10 mg group
# Protocol: To establish the bone metastasis tumor model, 1×10^5 cells were injected into the left ventricle of each mouse (7–8 weeks old), and surgery was monitored using a cardiac ultrasound instrument. The mice were randomly divided into three groups and treated with PBS (control group, n = 6), 5 mg kg^−1 ST‐CY14 (n = 6), and 10 mg kg^−1 ST‐CY14 (n = 6) Tumor cell metastasis was monitored using an in vivo imaging instrument (IVIS Spectrum, PerkinElmer, USA). by intraperitoneal injection of 20 mg kg^−1 D‐luciferin. The mice were treated with ST‐CY14 via intravenous injection using a 100 µL PBS solution every 2 days starting on the designated day after tumor cell injection. Bone tissue with MDA‐BoM‐1833 cell metastasis was obtained and stained for TRAP. The mice sera were collected and analyzed for BSP and β‐CTx levels using ELISA (Lengton, BPE10823, BPE10438). For the orthotopic xenograft tumor model, 3×10^6 cells were injected into the fourth pair of breast pads on the left side of the mouse (4–5 weeks old). The mice were treated with ST‐CY14 every two days once the tumor volume reached 30–50 mm^3, with the same groups as in the bone metastasis tumor model. The tumors were collected and stained for H&E, Ki‐67, and TUNEL assays, which were conducted by Wuhan Servicebio Technology Co., Ltd. Major organs (heart, liver, spleen, lung, and kidney) were also collected for H&E analysis by Wuhan Servicebio Technology Co., Ltd. The Transcriptome and LC/MS targeted lipid metabolome were sequenced by OE Biotech, Inc., Shanghai, China. To evaluate the efficacy of Csn‐B in inhibiting breast cancer bone metastasis, an animal model was established as described above. The mice were randomly divided into three groups and treated with PBS (control group, n = 6), 10 mg kg^−1 ST‐CY14 (n = 6) in 100 µL PBS solution, and 5 mg kg^−1 ST‐CY14 (n = 6) in a 100 µL mixed solution (5% DMSO, 20% PEG 400, 5% Tween 80, and 70% normal saline) via intravenous injection every 2 days starting on the designated day after tumor cell injection.
structure (smiles),measurement,setting,value
C[C@@H](O)[C@@H]1NC(=O)[C@H](CCCNC(=N)N)NC(=O)[C@H](CCCNC(=N)N)NC(=O)[C@@](C)(NC(=O)[C@H](Cc2ccccc2)NC(=O)CNC(=O)[C@H](CCCCN)NC(=O)[C@H](CS)NC(=O)CNC(=O)[C@H](CCC(=O)O)NC(=O)[C@@H](N)CS)CCCC=CCCC[C@@](C)(C(=O)N[C@@H](CCCNC(=N)N)C(=O)N[C@@H](Cc2ccc(O)cc2)C(=O)N[C@@H](Cc2ccc(O)cc2)C(=O)NCC(=O)N[C@@H](CCCNC(=N)N)C(=O)N[C@@H](CCCCN)C(=O)N[C@@H](CCCCN)C(=O)N[C@@H](CCCNC(=N)N)C(=O)N[C@@H](CCCNC(=N)N)C(=O)N[C@@H](CCC(N)=O)C(=O)N[C@@H](CCCNC(=N)N)C(=O)N[C@@H](CCCNC(=N)N)C(=O)N[C@@H](CCCNC(=N)N)C(N)=O)NC1=O [ST-CY14] (H-CEGCKGF[S5]RRT[S5]RYYGRKKRRQRRR-NH2; staple 8-12),CD36 and FABP4 transcription (qPCR),MCF7 cells [1],dose‐dependently inhibited CD36 and FABP4 expression at the transcriptional level
same,CD36 and FABP4 protein expression (immunoblot),MCF7 cells [2],inhibited the protein expression of CD36 and FABP4
same,Nur77 protein expression (immunoblot),MCF7 cells [2],increase in Nur77 expression
same,α-Helicity (CD),[3],12.01%
same,AGT expression in tumor tissue (transcriptome),[4]; sample 1,0.07902
same,ANGPTL4 expression in tumor tissue (transcriptome),[4]; sample 1,3.636
same,CD36 expression in tumor tissue (transcriptome),[4]; sample 1,0
same,CD74 expression in tumor tissue (transcriptome),[4]; sample 1,0.3461
same,CNR1 expression in tumor tissue (transcriptome),[4]; sample 1,0.02158
same,CYP3A5 expression in tumor tissue (transcriptome),[4]; sample 1,0.3686
same,FABP4 expression in tumor tissue (transcriptome),[4]; sample 1,0.03159
same,INSL5 expression in tumor tissue (transcriptome),[4]; sample 1,0
same,ITGAL expression in tumor tissue (transcriptome),[4]; sample 1,0.005294
same,OAS1 expression in tumor tissue (transcriptome),[4]; sample 1,0.1526
same,OLAH expression in tumor tissue (transcriptome),[4]; sample 1,0.7465
same,PLIN1 expression in tumor tissue (transcriptome),[4]; sample 1,0.1271
same,POLR2J3 expression in tumor tissue (transcriptome),[4]; sample 1,0.1542
same,PTPRC expression in tumor tissue (transcriptome),[4]; sample 1,0.09088
same,PYY expression in tumor tissue (transcriptome),[4]; sample 1,0.3061
same,RNF152 expression in tumor tissue (transcriptome),[4]; sample 1,0.2243
same,SLX1B expression in tumor tissue (transcriptome),[4]; sample 1,0.4199
same,UTS2B expression in tumor tissue (transcriptome),[4]; sample 1,0.2634
same,VAMP7 expression in tumor tissue (transcriptome),[4]; sample 1,0.394
same,ZNF404 expression in tumor tissue (transcriptome),[4]; sample 1,0.5136
same,ZNF429 expression in tumor tissue (transcriptome),[4]; sample 1,0.01399
same,AGT expression in tumor tissue (transcriptome),[4]; sample 2,0.282
same,ANGPTL4 expression in tumor tissue (transcriptome),[4]; sample 2,6.216
same,CD36 expression in tumor tissue (transcriptome),[4]; sample 2,0.00582
same,CD74 expression in tumor tissue (transcriptome),[4]; sample 2,0.2008
same,CNR1 expression in tumor tissue (transcriptome),[4]; sample 2,0.02567
same,CYP3A5 expression in tumor tissue (transcriptome),[4]; sample 2,0.2054
same,FABP4 expression in tumor tissue (transcriptome),[4]; sample 2,0
same,INSL5 expression in tumor tissue (transcriptome),[4]; sample 2,1.442
same,ITGAL expression in tumor tissue (transcriptome),[4]; sample 2,0
same,OAS1 expression in tumor tissue (transcriptome),[4]; sample 2,0.4448
same,OLAH expression in tumor tissue (transcriptome),[4]; sample 2,0.9577
same,PLIN1 expression in tumor tissue (transcriptome),[4]; sample 2,0.01163
same,POLR2J3 expression in tumor tissue (transcriptome),[4]; sample 2,0.3872
same,PTPRC expression in tumor tissue (transcriptome),[4]; sample 2,0.01081
same,PYY expression in tumor tissue (transcriptome),[4]; sample 2,1.722
same,RNF152 expression in tumor tissue (transcriptome),[4]; sample 2,0.1875
same,SLX1B expression in tumor tissue (transcriptome),[4]; sample 2,0.5583
same,UTS2B expression in tumor tissue (transcriptome),[4]; sample 2,0.2673
same,VAMP7 expression in tumor tissue (transcriptome),[4]; sample 2,0.4688
same,ZNF404 expression in tumor tissue (transcriptome),[4]; sample 2,0.685
same,ZNF429 expression in tumor tissue (transcriptome),[4]; sample 2,0.06657
same,AGT expression in tumor tissue (transcriptome),[4]; sample 3,0.02516
same,ANGPTL4 expression in tumor tissue (transcriptome),[4]; sample 3,3.683
same,CD36 expression in tumor tissue (transcriptome),[4]; sample 3,0.004672
same,CD74 expression in tumor tissue (transcriptome),[4]; sample 3,0.1451
same,CNR1 expression in tumor tissue (transcriptome),[4]; sample 3,0.07831
same,CYP3A5 expression in tumor tissue (transcriptome),[4]; sample 3,0.312
same,FABP4 expression in tumor tissue (transcriptome),[4]; sample 3,0.06034
same,INSL5 expression in tumor tissue (transcriptome),[4]; sample 3,0.1867
same,ITGAL expression in tumor tissue (transcriptome),[4]; sample 3,0
same,OAS1 expression in tumor tissue (transcriptome),[4]; sample 3,0.2478
same,OLAH expression in tumor tissue (transcriptome),[4]; sample 3,1.048
same,PLIN1 expression in tumor tissue (transcriptome),[4]; sample 3,0
same,POLR2J3 expression in tumor tissue (transcriptome),[4]; sample 3,0.1963
same,PTPRC expression in tumor tissue (transcriptome),[4]; sample 3,0.04774
same,PYY expression in tumor tissue (transcriptome),[4]; sample 3,0.5582
same,RNF152 expression in tumor tissue (transcriptome),[4]; sample 3,0.2258
same,SLX1B expression in tumor tissue (transcriptome),[4]; sample 3,0.5662
same,UTS2B expression in tumor tissue (transcriptome),[4]; sample 3,0.1702
same,VAMP7 expression in tumor tissue (transcriptome),[4]; sample 3,0.3548
same,ZNF404 expression in tumor tissue (transcriptome),[4]; sample 3,0.3567
same,ZNF429 expression in tumor tissue (transcriptome),[4]; sample 3,0.0501
